Laboratory results: paper PMC10053710, “Influence of Lipidation Pattern of the KR12 Fragment of Peptide LL-37 on Its Antibacterial and Hemolytic Activities” (International Journal of Molecular Sciences, 2023)
Values after ≈ are worked out from the molar mass of the structure shown. Values joined by “and” are separate entries in the source; they are usually repeats but may differ in a detail not shown here. Equal entries are not always repeated. Where a SMILES comes first, the peptide text is derived from it. The star is where a group is joined. Octanoyl = CCCCCCCC(=O)*; X1 = CCCCCCC(CCCC)C(=O)*; X3 = CCCCC(CC)C(=O)*; Butyryl = CCCC(=O)*

What was measured:
[1] = tested on: Enterococcus faecium ATCC 700221; type: cell-based; details: ATCC 700221, 18 h
Description: (§1) Tests of the antibacterial activity were carried out as we just described. Briefly, for assays, the following strains of ESKAPE bacteria were chosen: Acinetobacter baumannii ATCC BAA-1605, Enterococcus faecium ATCC 700221, Klebsiella aerogenes ATCC 13048 (formerly Enterobacter aerogenes), Klebsiella pneumoniae ATCC 700603, and Pseudomonas aeruginosa ATCC 9027. Moreover, the reference strains of Staphylococcus aureus were used: S. aureus ATCC 25923, S. aureus ATCC 6538, S. aureus ATCC 33591 (MRSA), S. aureus ATCC 9144, and S. aureus ATCC 12598. Before experiments, all the strains were stored at −80 °C in Roti®-Store cryo vials (Carl Roth GmbH, Karlsruhe, Germany). To evaluate the activity of the compounds, bacteria were transferred into fresh Mueller–Hinton medium (Becton Dickinson, Warszawa, Poland) and incubated for 24 h at 37 °C. In the next step, bacterial inoculums were seeded on Mueller–Hinton agar plates (BioMaxima SA, Lublin, Poland) and incubated again for 24 h. The MIC values were determined using the broth microdilution method according to the Clinical and Laboratory Standards Institute Protocol. The initial inoculums of bacteria (0.5 × 10^5 colony forming units (CFU)/mL) prepared in Mueller–Hinton broth were exposed to the ranging concentrations of peptides (1–512 µg/mL). The experiments were conducted on 96-well microtiter plates, with a final volume of 100 µL. The inoculum densities were checked spectrophotometrically (Multiskan™ GO Microplate Spectrophotometer, Thermo Scientific, Waltham, MA, USA) at 600 nm. The results were read after incubation for 18 h at 37 °C. The MIC values were the lowest concentration at which a visible growth of microorganisms was inhibited. All experiments were conducted in triplicate. Moreover, positive (growth) and negative (sterility) controls were included.

[2] = tested on: Klebsiella aerogenes ATCC 13048; type: cell-based; details: ATCC 13048, 18 h
Description: as §1

[3] = tested on: Pseudomonas aeruginosa ATCC 9027; type: cell-based; details: ATCC 9027, 18 h
Description: as §1

[4] = tested on: Klebsiella pneumoniae ATCC 700603; type: cell-based; details: ATCC 700603, 18 h
Description: as §1

[5] = tested on: S. aureus ATCC 33591 (MRSA); type: cell-based, Staphylococcus aureus; details: ATCC 33591, 18 h
Description: as §1

[6] = tested on: S. aureus ATCC 12598; type: cell-based, Staphylococcus aureus; details: ATCC 12598, 18 h
Description: as §1

[7] = tested on: S. aureus ATCC 25923; type: cell-based, Staphylococcus aureus; details: ATCC 25923, 18 h
Description: as §1

[8] = tested on: S. aureus ATCC 6538; type: cell-based, Staphylococcus aureus; details: ATCC 6538, 18 h
Description: as §1

[9] = tested on: S. aureus ATCC 9144; type: cell-based, Staphylococcus aureus; details: ATCC 9144, 18 h
Description: as §1

[10] = tested on: human red blood cells (hRBCs); test: Hemolysis assay; details: for MHC5 (minimum hemolytic concentration causing 5% hemolysis of hRBCs): 4% (v/v) erythrocytes in PBS, peptides 1–512 µg/mL, 1 h at 37 °C, hemoglobin at 540 nm
Description: To facilitate a comparison of hemolytic activity between the analogs, MHC5 values were determined. MHC5 is the minimum hemolytic concentration of the compounds that caused the 5% hemolysis of hRBCs.
Briefly, the fresh hRBCs with EDTA as anticoagulant were rinsed three times with PBS through centrifugation at 800× g for 10 min and resuspended in PBS. The serial dilution of peptides (1–512 µg/mL) was prepared in PBS on 96-well plates. Then, the stock RBCs solution was added to the plates to reach a final volume of 100 µL with a 4% concentration of erythrocytes (v/v). The control wells for 0 (RBCs in PBS) and 100% (RBCs in 1% Triton-X 100) hemolysis were also prepared. Then, the plates were incubated for 1 h at 37 °C and centrifuged at 800× g for 10 min at 4 °C (Sorvall ST 16R Centrifuge, Thermo Scientific, Waltham, MA, USA). After centrifugation, the supernatant was carefully transferred to new microtiter plates and the release of hemoglobin was measured at 540 nm (Multiskan™ GO Microplate Spectrophotometer, Thermo Scientific, Waltham, MA, USA). The percentage of hemolysis was calculated based on wells with 100% hemolysis.

[11] = 18 h
[12] = fresh batch of blood (footnote a)

| Structure (SMILES) | MIC E. faecium [1] [µg/mL] | MIC K. aerogenes [2] [µg/mL] | MIC P. aeruginosa [3] [µg/mL] | MIC K. pneumoniae [4] [µg/mL] | MIC S. aureus 33591 [5] [µg/mL] | MIC S. aureus 12598 [6] [µg/mL] | MIC S. aureus 25923 [7] [µg/mL] | MIC S. aureus 6538 [8] [µg/mL] | MIC S. aureus 9144 [9] [µg/mL] | Hemolytic effect over the studied concentration range ([10]; hRBCs, concentration range up to 512 µg/mL, significant = >5% hemolysis) | MIC A. baumannii [11] [µg/mL] | MHC5 (minimum hemolytic concentration causing 5% hemolysis of hRBCs) ([10]; 100% = 1% Triton-X 100, ≥ means less than 5% hemolysis up to 512 µg/mL) [µg/mL] | MHC5 (minimum hemolytic concentration causing 5% hemolysis of hRBCs) [10, 12] |
| --- | --- | --- | --- | --- | --- | --- | --- | --- | --- | --- | --- | --- | --- |
| CCCC(=O)NCCCC[C@H](NC(=O)CCC)C(=O)N[C@@H](CCCNC(=N)N)C(=O)N[C@H](C(=O)N[C@H](C(=O)N[C@@H](CCC(N)=O)C(=O)N[C@@H](CCCNC(=N)N)C(=O)N[C@H](C(=O)N[C@@H](CCCCN)C(=O)N[C@@H](CC(=O)O)C(=O)N[C@@H](Cc1ccccc1)C(=O)N[C@@H](CC(C)C)C(=O)N[C@@H](CCCNC(=N)N)C(N)=O)[C@@H](C)CC)C(C)C)[C@@H](C)CC [X, C4^α, C4^ε-KR12-NH2] (Butyryl-K(Butyryl)RIVQRIKDFLR-NH2) | 32 (≈ 18.7 µM) | 256 (≈ 150 µM) | >512 | 512 (≈ 299 µM) | 512 (≈ 299 µM) | 512 (≈ 299 µM) | 128 (≈ 74.8 µM) | 32 (≈ 18.7 µM) | 256 (≈ 150 µM) | did not induce any significant hemolysis (>5%) | 128 (≈ 74.8 µM) | – | – |
| CCCCCCCC(=O)N[C@@H](CCCNC(=N)N)C(=O)N[C@@H](CC(C)C)C(=O)N[C@@H](Cc1ccccc1)C(=O)N[C@@H](CC(=O)O)C(=O)N[C@@H](CCCCN)C(=O)N[C@H](C(=O)N[C@@H](CCCNC(=N)N)C(=O)N[C@@H](CCC(N)=O)C(=O)N[C@H](C(=O)N[C@H](C(=O)N[C@@H](CCCNC(=N)N)C(=O)N[C@@H](CCCCN)C(N)=O)[C@@H](C)CC)C(C)C)[C@@H](C)CC [XII, C8^α-retro-KR12-NH2] (Octanoyl-RLFDKIRQVIRK-NH2) | 8 (≈ 4.71 µM) | 256 (≈ 151 µM) | 64 (≈ 37.7 µM) | 128 (≈ 75.4 µM) | 32 (≈ 18.9 µM) | 32 (≈ 18.9 µM) | 32 (≈ 18.9 µM) | 8 (≈ 4.71 µM) | 32 (≈ 18.9 µM) | – | 64 (≈ 37.7 µM) | ≥512 | – |
| CCCCCCC(CCCC)C(=O)N[C@@H](CCCCN)C(=O)N[C@@H](CCCNC(=N)N)C(=O)N[C@H](C(=O)N[C@H](C(=O)N[C@@H](CCC(N)=O)C(=O)N[C@@H](CCCNC(=N)N)C(=O)N[C@H](C(=O)N[C@@H](CCCCN)C(=O)N[C@@H](CC(=O)O)C(=O)N[C@@H](Cc1ccccc1)C(=O)N[C@@H](CC(C)C)C(=O)N[C@@H](CCCNC(=N)N)C(N)=O)[C@@H](C)CC)C(C)C)[C@@H](C)CC (some centres unmarked) [XIII, 2-Buthyloctanoic acid-KR12-NH2] (X1-KRIVQRIKDFLR-NH2) | 2 (≈ 1.14 µM) | 8 (≈ 4.56 µM) | 32 (≈ 18.3 µM) | 8 (≈ 4.56 µM) | 4 (≈ 2.28 µM) | 4 (≈ 2.28 µM) | 8 (≈ 4.56 µM) | 32 (≈ 18.3 µM) | 2 (≈ 1.14 µM) | – | 4 (≈ 2.28 µM) | – | 8 µg/mL and 16 ^a µg/mL |
| CCCCC(CC)C(=O)N[C@@H](CCCCN)C(=O)N[C@@H](CCCNC(=N)N)C(=O)N[C@H](C(=O)N[C@H](C(=O)N[C@@H](CCC(N)=O)C(=O)N[C@@H](CCCNC(=N)N)C(=O)N[C@H](C(=O)N[C@@H](CCCCN)C(=O)N[C@@H](CC(=O)O)C(=O)N[C@@H](Cc1ccccc1)C(=O)N[C@@H](CC(C)C)C(=O)N[C@@H](CCCNC(=N)N)C(N)=O)[C@@H](C)CC)C(C)C)[C@@H](C)CC (some centres unmarked) [XIV, 2-Ethylhexanoic acid-KR12-NH2] (X3-KRIVQRIKDFLR-NH2) | 4 (≈ 2.36 µM) | 16 (≈ 9.43 µM) | 128 (≈ 75.4 µM) | 16 (≈ 9.43 µM) | 16 (≈ 9.43 µM) | 32 (≈ 18.9 µM) | 64 (≈ 37.7 µM) | 16 (≈ 9.43 µM) | 32 (≈ 18.9 µM) | – | 16 (≈ 9.43 µM) | – | 256 ^a µg/mL |
